The source of these data is PubChem BioAssay AID1159564 (GlaxoSmithKline (GSK), 2015).

The source made the active and inactive calls. The rule behind the calls is not given here.

In general, IC50 refers to the concentration that inhibits the measured activity by half.

For this test, the system named is L. donovani-infected THP-1 macrophages, intracellular amastigote imaging. Briefly: intracellular L. donovani amastigote inhibition, imaging, THP-1 host macrophages, host toxicity (AID 1159564).
The mark [1] stands for this setting: measured here: THP-1 host cell toxicity.
The mark [2] stands for this setting: measured here: amastigotes per macrophage.

With `Cc1c(C(=O)NCCCCn2ccnc2)oc2c(C)cccc12`, the IC50 is > 50 µM (inactive). For the same compound, under setting [1], the IC50 is above 50 µM. The same compound had an IC50 under setting [2] above 50 µM.
For the compound `Cc1ccc(NC(=O)c2ccc(Cl)c(NC(=O)c3ccc([N+](=O)[O-])cc3)c2)cc1`, the IC50 is > 50 µM (inactive). The IC50 under setting [1] is above 50 µM. This compound displayed an IC50 under setting [2] above 50 µM.
In the case of `CC(C)C[C@H](NC(=O)c1csc(-c2cccs2)n1)C(=O)NC1(C#N)CC1`, the IC50 is > 50 µM (inactive). Under setting [1], this compound showed an IC50 above 50 µM. Besides, under setting [2], the IC50 is above 50 µM.
Take `O=C(O)[C@H]1C[C@@H]1c1ccc(-c2ccc(CN(CCc3ccccn3)C(=O)C3CCC3)cc2)cc1`: the IC50 is > 50 µM (inactive). Also, the IC50 under setting [1] was above 50 µM. For the same compound, the IC50 under setting [2] was above 50 µM.
Consider `O=C(NCC(c1cccs1)N1CCOCC1)c1ccc([N+](=O)[O-])o1` (stereo not drawn), for which the half-maximal inhibitory concentration (IC50) was 25 µM. The compound also had an IC50 under setting [1] of 25 µM. The compound also yielded an IC50 under setting [2] of 16 µM.
Take `CN(Cc1nnnn1C1CCN(Cc2ccc(-n3ccnc3)cc2)CC1)c1ccc(F)cc1F`: the IC50 was > 50 µM (inactive). The same compound registered an IC50 under setting [1] above 50 µM. Besides, the IC50 under setting [2] was found to be 16 µM.
Take `COc1ccc(Nc2nc(-c3ccccn3)cs2)c(OC)c1`: the IC50 was 2.5 µM. Under setting [1], this compound returned an IC50 above 50 µM. The compound further showed an IC50 under setting [2] of 2 µM.
In the same order, the values of `Clc1ccc(Sc2cnccc2N2CCOCC2)cc1` are > 50 µM (inactive), above 50 µM and 10 µM.
In the same order, the values of `CC(C)COC(=O)Nc1ccc(N2CCC(CNS(=O)(=O)c3ccccc3)CC2)c(F)c1` are 2 µM, above 50 µM and 1.3 µM.
Regarding `Cc1cc2nc(N3CC[C@H]3C(N)=O)nc(Nc3cc(C4CC4)[nH]n3)c2s1`, the IC50 was 2 µM. Under setting [1], the IC50 was 0.79 µM. The IC50 under setting [2] is 1.3 µM.
For `Nc1nc(-c2ccccc2)cc(-c2nc3ncccc3[nH]2)n1` the same measures were 2.5 µM, above 50 µM and 2.5 µM.
On to `COc1ccccc1-c1c(C)[nH]c2nc(N)nc(C)c12`, for which the IC50 was 25 µM. The compound further yielded an IC50 under setting [1] above 50 µM. Also, under setting [2], the IC50 came out at 16 µM.
Take `CC(C)(C)CC(=O)NCc1noc(COc2ccccc2)n1`: the IC50 is > 50 µM (inactive). Under setting [1], this compound displayed an IC50 above 50 µM. Besides, the IC50 under setting [2] is above 50 µM.
In the case of `CC1=C(C(=O)Nc2ccc(Cl)cc2)C(c2ccncc2)n2ncc(C(=O)Nc3ccccc3)c2N1` (stereo not drawn), the IC50 is > 50 µM (inactive). Under setting [1], this compound returned an IC50 of 13 µM. The IC50 under setting [2] was above 50 µM.
As to `CN(Cc1nc2ccccc2s1)C(=O)C=Cc1cc2ccccc2o1`, the IC50 is > 50 µM (inactive). Moreover, the IC50 under setting [1] was above 50 µM. Moreover, the IC50 under setting [2] was 16 µM.
As to `Cc1cc(N2CCc3ccccc3C2)nc(Nc2ccc(S(=O)(=O)N3CCOCC3)cc2)n1`, the IC50 was 5 µM. The IC50 under setting [1] stood at 25 µM. This compound also yielded an IC50 under setting [2] of 1.6 µM.
For `O=S1N=C(NCCCN(Cc2ccc(F)cc2)c2ccccn2)C(NCc2ccncc2)=N1` (stereo not drawn) the same measures were > 50 µM (inactive), 25 µM and 25 µM.
In the same order, the values of `COCc1cc(Nc2ccc(Cl)cc2)nc(-c2ccccn2)n1` are 1.3 µM, 20 µM and 0.79 µM.
For `O=C(CN(Cc1ccccn1)Cc1ccccn1)NCc1ccc2c(c1)OCO2`, the IC50 was 7.9 µM. Further, the IC50 under setting [1] is above 79 µM. This compound also yielded an IC50 under setting [2] of 6.3 µM.
In the case of `COc1ccc(Nc2nccc(N(C)c3n[nH]c4c(F)cccc34)n2)cc1S(C)(=O)=O`, the IC50 is 2.5 µM. This compound also had an IC50 under setting [1] of 10 µM. The compound also came in with an IC50 under setting [2] of 1 µM.
Take `CCCCN(C(=O)c1ccc(NC(=O)C(C)C)cc1)c1ccccc1`: the IC50 is 5 µM. Also, the IC50 under setting [1] was above 50 µM. This compound also came in with an IC50 under setting [2] of 3.2 µM.
As for `CN(C(=O)Nc1ccc2c(c1)CCN(C1CCC1)CC2)c1ccc(C#N)cc1`, the IC50 was > 50 µM (inactive). Under setting [1], this compound showed an IC50 above 50 µM. This compound also showed an IC50 under setting [2] above 50 µM.
`Cc1nc2c(-c3ncn[nH]3)cc(NC(=O)Cc3ccccc3)cn2c1C`: the IC50 is 0.4 µM. This compound had an IC50 under setting [1] of 7.9 µM. The compound further returned an IC50 under setting [2] of 0.32 µM.
For `O=C(NCc1ccc(Cl)cc1)C1CN(C(=O)c2ccc(F)cc2)CCS1` (stereo not drawn) the same measures were > 50 µM (inactive), above 50 µM and above 50 µM.
For `COc1cnc2ccc(=O)n(CCN3CCC(NC(=O)c4ccc(Cl)cc4)CC3)c2c1` the same measures were > 50 µM (inactive), above 50 µM and 4 µM.
In the same order, the values of `O=C(CSc1ccc(F)cc1)N[C@@H](Cc1cnc[nH]1)C(=O)NCCc1ccccc1` are > 50 µM (inactive), above 50 µM and above 50 µM.
For `NC(=O)c1ncccc1Nc1nc(NC2CCC(O)CC2)ncc1Br` (stereo not drawn), the IC50 is 1.3 µM. Moreover, the IC50 under setting [1] was 0.4 µM. Further, the IC50 under setting [2] came out at 0.63 µM.
Take `O=C(CN1CCC2(O)CCCCC2C1c1ccc2c(c1)OCO2)Nc1ccc(Cl)cc1Cl` (stereo not drawn): the IC50 was 3.2 µM. The compound further returned an IC50 under setting [1] above 50 µM. Also, the IC50 under setting [2] was found to be 1.3 µM.
Take `O=C(Nc1n[nH]c(-c2ccccn2)n1)C1CC1c1ccccc1` (stereo not drawn): the IC50 is 7.9 µM. The compound further yielded a half-maximal inhibitory concentration (IC50) under setting [1] of 20 µM. The IC50 under setting [2] was found to be 7.9 µM.
On to `O=C(NCCc1ccn(-c2ccccc2)n1)C1CCCCC1`, for which the IC50 was > 50 µM (inactive). The IC50 under setting [1] is above 50 µM. Further, the IC50 under setting [2] is above 50 µM.
With `Cc1nc(-c2ccc3c(c2)OCO3)sc1C(=O)NCc1ccc2c(c1)OCO2`, the IC50 is 0.25 µM. Under setting [1], this compound displayed an IC50 above 50 µM. Under setting [2], the IC50 came to 0.79 µM.
Consider `N#Cc1cccc(CN2CCC(c3nc(-c4ccc(C(F)(F)F)nc4)no3)CC2)c1`, for which the IC50 is > 50 µM (inactive). For the same compound, the IC50 under setting [1] was above 50 µM. Under setting [2], this compound registered an IC50 above 50 µM.
Turning to `CCC(=O)Nc1ccc(-c2nc3ccc(Cl)cc3[nH]2)cc1`, the IC50 is > 50 µM (inactive). Also, the IC50 under setting [1] is above 50 µM. This compound also gave an IC50 under setting [2] above 50 µM.
As for `CCn1c(-c2nonc2N)nc2c([C@@H](C)O)ncc(O[C@H](CN)c3ccccc3)c21`, the IC50 was 5 µM. Besides, under setting [1], the IC50 was 3.2 µM. For the same compound, under setting [2], the 50% inhibitory concentration (IC50) is 3.2 µM.
On to `CC(C)c1cc(Nc2cc(Cc3ccccc3)nc(NC3CCC(O)CC3)n2)n[nH]1` (stereo not drawn), for which the IC50 was 0.063 µM. The IC50 under setting [1] turned out to be 0.02 µM. In addition, the IC50 under setting [2] was 0.04 µM.
For `O=C(NCCCn1cnc2ccccc21)c1ccc(NC(=O)c2ccco2)cc1` the same measures were > 50 µM (inactive), above 50 µM and 13 µM.
For the compound `COc1ccc([N+](=O)[O-])cc1NC(=O)Nc1cccc(Cl)c1`, the IC50 is > 50 µM (inactive). The compound also returned an IC50 under setting [1] of 50 µM. This compound also returned an IC50 under setting [2] above 50 µM.
Take `Cc1cccc(Nc2nc(-c3ccccn3)cs2)n1`: the IC50 is 3.2 µM. Besides, the IC50 under setting [1] is above 50 µM. Further, the IC50 under setting [2] is 2 µM.
`CCN(C)Cc1ccc(N2CCC(NS(=O)(=O)c3ccc4c(c3)CCO4)CC2)nc1`: the IC50 was > 50 µM (inactive). Under setting [1], the IC50 was above 50 µM.
For `COc1cc(F)c2ncc(F)c(CCN3CC[C@H](NCc4cc5c(cn4)OCS5)[C@@H](O)C3)c2c1`, the IC50 was 16 µM. Moreover, the half-maximal inhibitory concentration (IC50) under setting [1] turned out to be 16 µM. Under setting [2], this compound yielded an IC50 of 13 µM.
As to `CNC(=O)C1Cc2ccccc2N1C(=O)COc1cccc(OC)c1` (stereo not drawn), the IC50 was > 50 µM (inactive). For the same compound, under setting [1], the IC50 was above 50 µM. The compound also yielded an IC50 under setting [2] above 50 µM.
On to `Cc1cc(Br)sc1CNCCCNc1cc(=O)c2ccccc2[nH]1`, for which the IC50 was 25 µM. In addition, under setting [1], the IC50 was found to be 20 µM. Under setting [2], this compound showed an IC50 of 20 µM.
In the case of `COCCn1cnc2cc(NC(=O)C3CCCCC3)cc(C(=O)N3CCc4sccc4C3)c21`, the IC50 was > 50 µM (inactive). Also, under setting [1], the concentration for half-maximal inhibition (IC50) is above 50 µM. Also, under setting [2], the IC50 is above 50 µM.
`CC(C)Oc1ccc(C(=O)Nc2ccc(N3CCOCC3)c(Cl)c2)cc1`: the IC50 was > 50 µM (inactive). This compound showed an IC50 under setting [1] above 50 µM. The compound further came in with an IC50 under setting [2] of 3.2 µM.
Consider `Cc1nc2c(-c3nc(-c4ccc(N)cc4)n[nH]3)cccn2c1C`, for which the IC50 was 2 µM. Moreover, the IC50 under setting [1] was 13 µM. This compound also returned an IC50 under setting [2] of 1.6 µM.
For `O=C(NCc1ccc(-n2cccc2)cc1)c1nc(Cn2ccc([N+](=O)[O-])n2)no1` the same measures were > 50 µM (inactive), above 50 µM and above 50 µM.
For `CCOc1ccc(NC(=O)c2ccc(NC(=O)NC3CCCCC3)cc2)cc1` the same measures were 7.9 µM, 4 µM and 6.3 µM.
For `O=C(COc1ncnc2cc([N+](=O)[O-])ccc12)NC(=O)NC1CCCCC1`, the IC50 was > 50 µM (inactive). This compound came in with an IC50 under setting [1] above 50 µM. The same compound had an IC50 under setting [2] above 50 µM.
For `O=c1[nH]cnc2c([C@@H]3O[C@H](CO)[C@@H](O)[C@H]3O)[nH]nc12`, the IC50 was 2 µM. Further, the IC50 under setting [1] was above 50 µM. This compound also displayed an IC50 under setting [2] of 0.4 µM.
With `CCN(CC)S(=O)(=O)c1ccc(Cn2nc(C(=O)Nc3ccncn3)c3ccccc32)cc1`, the IC50 was > 50 µM (inactive). The same compound showed an IC50 under setting [1] above 50 µM. The compound further showed an IC50 under setting [2] above 50 µM.
On to `CS(=O)(=O)c1ccc(CC(=O)Nc2nc(-c3ccc(Cl)s3)cs2)cc1`, for which the IC50 was > 50 µM (inactive). Also, the half-inhibitory concentration (IC50) under setting [1] came to 16 µM. In addition, under setting [2], the IC50 is above 50 µM.
In the same order, the values of `O=C(COc1nn(-c2ccccc2)c2ncccc12)NCc1ccccc1` are 0.32 µM, above 50 µM and 0.079 µM.
In the same order, the values of `CC(=Cc1ccccc1)CN1CCC(=O)N(Cc2cccnc2)CC1` are > 50 µM (inactive), 40 µM and 32 µM.
